Test results: ChEMBL document CHEMBL1124787, “Conformationally constrained congeners of 6-aryl-5-methyl-4,5-dihydro-3(2H)-pyridazinones active on the cardiovascular system: conformational studies by molecular mechanics calculations and 1H NMR spectroscopy” (1990)
The source made the active and inactive calls. The calls are words filed in the database; no cut-off is given here.

Assays:
[1] = tested on: Mus musculus; assay: Antithrombotic activity after oral administration in mouse was measured as protection vs control percent; format: functional
[2] = species on record: Cavia porcellus; assay: Inotropic activity evaluated in vitro in spontaneously beating guinea pig atria;IA-Inactive; format: functional
[3] = tested on: Rattus norvegicus; assay: The dose (administered orally) that lowered blood pressure by 50 mmHg in conscious, spontaneously hypertensive rats (SHR) (peak effect); IA-Inactive; format: functional, organism-based

| SMILES | Activity [1] | pD2 [2] | ED50 [3] |
| --- | --- | --- | --- |
| CC(=O)Nc1ccc2c(c1)CCC1CC(=O)NN=C21 (stereo not given) | 100 |  |  |
| CC(=O)Nc1ccc2c(c1)CC1CC(=O)NN=C21 (stereo not given) | 100 |  |  |
| Nc1ccc2c(c1)CCCC1CC(=O)NN=C21 (stereo not given) | 45 | inactive | inactive |
| Nc1ccc2c(c1)CCC1CC(=O)NN=C21 (stereo not given) | 73 |  |  |
| Nc1ccc2c(c1)CC1CC(=O)NN=C21 (stereo not given) | 87 |  |  |
| CC(=O)Nc1ccc2c(c1)CCCC1CC(=O)NN=C21 (stereo not given) | 46 | inactive | inactive |
